Measured values reported in ChEMBL document CHEMBL1201862, “PubChem BioAssay data set” (2004).
Calls of active or inactive are those of the source.

Experiments:
Troponin, cardiac muscle = Troponin, cardiac muscle (Homo sapiens, UniProt P19429+P45379+P63316); assay: Fluorescence-based biochemical high throughput dose response assay for activators of the calcium sensitivity of cardiac Regulated Thin Filaments (RTF). [Related pubchem assays (depositor defined):AID493008, AID493018, AID504382, AID504383]; assay type: protein-complex assay
[1] = target: T1, Microphthalmia-associated transcription factor (Homo sapiens, UniProt O75030); assay: TRPM1 promoter luciferase signal decrease, dose response, MITF inhibitor project, cell-based, SK-MEL-5, cherry-picked, set 3 (AID 493073); assay type: functional
T1 sequence (O75030 whole entry): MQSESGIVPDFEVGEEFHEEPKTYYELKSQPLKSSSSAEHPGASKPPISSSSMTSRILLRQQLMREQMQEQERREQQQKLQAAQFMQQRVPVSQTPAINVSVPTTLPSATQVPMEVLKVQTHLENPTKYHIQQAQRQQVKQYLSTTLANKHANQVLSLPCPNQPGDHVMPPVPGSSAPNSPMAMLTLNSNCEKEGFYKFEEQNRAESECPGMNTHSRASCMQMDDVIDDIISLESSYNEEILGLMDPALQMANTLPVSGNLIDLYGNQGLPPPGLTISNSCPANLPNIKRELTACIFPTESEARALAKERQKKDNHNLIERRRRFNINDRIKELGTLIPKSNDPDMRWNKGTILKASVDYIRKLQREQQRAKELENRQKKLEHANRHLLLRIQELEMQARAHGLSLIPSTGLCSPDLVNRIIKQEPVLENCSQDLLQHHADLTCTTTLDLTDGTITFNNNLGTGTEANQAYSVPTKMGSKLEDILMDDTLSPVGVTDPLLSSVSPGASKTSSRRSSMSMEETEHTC

Cysteine protease ATG4B = target: T2, Cysteine protease ATG4B (Homo sapiens, UniProt Q9Y4P1); assay type: functional;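 also: Fluorescence-based dose-response confirmation assay measuring inhibition of ATG4B activity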
T2 sequence (Q9Y4P1 whole entry): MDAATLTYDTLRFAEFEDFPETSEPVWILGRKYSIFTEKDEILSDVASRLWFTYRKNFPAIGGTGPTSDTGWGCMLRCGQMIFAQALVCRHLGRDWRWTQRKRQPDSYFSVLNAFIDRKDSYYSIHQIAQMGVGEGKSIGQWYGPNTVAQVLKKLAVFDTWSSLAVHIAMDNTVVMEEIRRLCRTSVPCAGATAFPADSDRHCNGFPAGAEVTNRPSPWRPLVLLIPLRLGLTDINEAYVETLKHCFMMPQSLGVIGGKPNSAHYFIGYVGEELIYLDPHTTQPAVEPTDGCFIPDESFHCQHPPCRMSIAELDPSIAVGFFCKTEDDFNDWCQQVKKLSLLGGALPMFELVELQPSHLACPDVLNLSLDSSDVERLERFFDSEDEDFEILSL

A-375 [2] = assay: MITF: Counter assay: A375 proliferation Measured in Cell-Based System Using Plate Reader - 2084-03_Inhibitor_Dose_DryPowder_Activity. [Related pubchem assays (depositor defined):AID488944]; assay type: functional; conditions: Homo sapiens
A-375 [3] = assay: A375 melanoma cell viability reduction, dose response, counter-screen for MITF modulator project, cherry-pick samples, set 2 (AID 540335); assay type: functional, cell-based; conditions: Homo sapiens
Phospholipase A2 = Phospholipase A2 (Homo sapiens, UniProt P04054); assay type: functional;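 also: confirmatory dose-response counterscreen on phospholipase A2, testing hits that came from an ultra-high-throughput screen for ATG4B inhibitors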
Beta-galactosidase = Beta-galactosidase (Escherichia coli, UniProt Q8VNN2); assay: beta-galactosidase enzyme inhibitors and activators, dose response, artefact control for CCR6 antagonist project, biochemical, E. coli enzyme, set 3 (AID 504712); assay type: functional
Hexokinase HKDC1 = target: T3, Hexokinase HKDC1 (Homo sapiens, UniProt Q2TB90); assay: HKDC1 hexokinase inhibitors, dose response, biochemical, W721R variant (AID 504729); assay type: functional
T3 sequence (Q2TB90 whole entry): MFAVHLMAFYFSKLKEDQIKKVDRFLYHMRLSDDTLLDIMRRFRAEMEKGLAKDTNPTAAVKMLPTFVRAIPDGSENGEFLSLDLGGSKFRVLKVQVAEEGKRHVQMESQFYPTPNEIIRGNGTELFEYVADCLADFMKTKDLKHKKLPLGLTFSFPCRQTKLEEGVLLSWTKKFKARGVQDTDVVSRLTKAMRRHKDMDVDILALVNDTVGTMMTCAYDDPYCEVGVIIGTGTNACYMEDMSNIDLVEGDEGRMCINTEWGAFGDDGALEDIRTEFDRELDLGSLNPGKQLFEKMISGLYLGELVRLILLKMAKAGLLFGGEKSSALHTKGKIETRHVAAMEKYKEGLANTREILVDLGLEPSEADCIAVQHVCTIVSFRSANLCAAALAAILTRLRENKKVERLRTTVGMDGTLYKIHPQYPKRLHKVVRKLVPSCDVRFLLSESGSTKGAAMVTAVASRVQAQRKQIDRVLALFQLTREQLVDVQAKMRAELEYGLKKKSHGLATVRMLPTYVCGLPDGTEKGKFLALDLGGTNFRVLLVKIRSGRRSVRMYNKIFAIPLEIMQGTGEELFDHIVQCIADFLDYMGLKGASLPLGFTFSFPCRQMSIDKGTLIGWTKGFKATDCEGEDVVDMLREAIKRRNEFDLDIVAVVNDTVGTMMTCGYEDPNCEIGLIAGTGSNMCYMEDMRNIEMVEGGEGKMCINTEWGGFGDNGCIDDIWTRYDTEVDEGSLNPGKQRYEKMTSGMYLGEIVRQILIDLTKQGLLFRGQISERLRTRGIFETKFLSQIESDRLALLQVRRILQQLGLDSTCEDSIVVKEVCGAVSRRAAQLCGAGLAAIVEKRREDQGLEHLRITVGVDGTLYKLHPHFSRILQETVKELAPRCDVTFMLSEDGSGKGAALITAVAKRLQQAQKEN

Beta-arrestin-1 = Beta-arrestin-1 (Homo sapiens, UniProt P49407); assay: inhibitors of arrestin peptide binding to AP2, dose response, biochemical, cherry pick 1, beta2-adaptin appendage, flow cytometry (AID 588783); assay type: functional
[4] = target: Luciferin 4-monooxygenase (Photinus pyralis, UniProt P08659); assay: Counter Screen for Luciferase-based Assay Positives. [Related pubchem assays: 620, 618, 411 ]
[5] = growth suppression of beta-catenin-knockout colon cells, dose response, cell-based, HCT116, human colon tumor (AID 1045); assay type: functional;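 also: HCT116 colon tumor cells with beta catenin knocked out; cells exposed to compound for 60 hours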
[6] = target: Eukaryotic translation initiation factor 4E (Mus musculus, UniProt P63073); assay: eIF4E–eIF4G protein interaction inhibitors, dose response, biochemical, TR-FRET (AID 855); assay type: functional;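 also: potency for disrupting eIF4E binding to eIF4GI seen as loss of FRET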
[7] = target: C-C chemokine receptor type 6 (Homo sapiens, UniProt P51684); assay: CCR6 receptor antagonists, dose response, cell-based, luminescent beta-arrestin readout (AID 504728); assay type: functional
HT-1080 = assay: cytotoxicity in HT1080 fibrosarcoma cells, cell-based, fluorescence readout (AID 620); assay type: functional; conditions: Homo sapiens
Protein RecA = target: T4, Protein RecA (Mycobacterium tuberculosis, UniProt P9WHJ3); assay: Fluorescence Cell-Free Homogeneous Dose Retest to Identify Inhibitors of RecA-Intein Splicing Activity. [Related pubchem assays (depositor defined):AID2097, AID2223, AID489010, AID492950]; assay type: functional
T4 sequence (P9WHJ3 whole entry): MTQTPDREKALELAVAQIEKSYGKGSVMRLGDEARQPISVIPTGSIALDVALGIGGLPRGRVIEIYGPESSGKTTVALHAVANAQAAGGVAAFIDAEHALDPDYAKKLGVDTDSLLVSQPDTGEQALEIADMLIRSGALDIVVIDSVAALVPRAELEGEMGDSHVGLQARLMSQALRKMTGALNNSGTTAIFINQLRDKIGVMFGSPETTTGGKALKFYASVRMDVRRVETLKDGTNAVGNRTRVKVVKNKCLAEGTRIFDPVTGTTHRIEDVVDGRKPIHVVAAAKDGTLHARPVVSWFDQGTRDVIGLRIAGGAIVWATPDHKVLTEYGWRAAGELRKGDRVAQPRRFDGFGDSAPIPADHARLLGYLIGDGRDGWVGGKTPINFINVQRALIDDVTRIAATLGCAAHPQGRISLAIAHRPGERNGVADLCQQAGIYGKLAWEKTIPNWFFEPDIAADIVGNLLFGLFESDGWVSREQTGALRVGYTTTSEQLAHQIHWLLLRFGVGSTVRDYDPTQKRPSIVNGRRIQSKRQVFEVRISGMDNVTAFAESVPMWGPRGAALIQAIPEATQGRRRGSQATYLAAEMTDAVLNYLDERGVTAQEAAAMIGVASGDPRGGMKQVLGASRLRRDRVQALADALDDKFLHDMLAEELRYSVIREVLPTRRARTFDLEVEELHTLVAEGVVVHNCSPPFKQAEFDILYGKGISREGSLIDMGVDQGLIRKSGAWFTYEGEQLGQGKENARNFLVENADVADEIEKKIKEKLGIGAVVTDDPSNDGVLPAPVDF

[8] = growth suppression of PTEN-null colon cells, dose response, cell-based, HCT116 PTEN knockout (AID 1047); assay type: functional;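 also: HCT116 colon tumor cells with PTEN knocked out; cells exposed to compound for 60 hours before readout; potency for loss of cell viability measured by luminescence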
Protein Tat = target: T5, Protein Tat (Human immunodeficiency virus type 1 group M subtype B (isolate HXB2)(HIV-1), UniProt P04608); assay type: functional;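 also: tat binding to TAR RNA read out by fluorescence polarization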
T5 sequence (P04608 whole entry): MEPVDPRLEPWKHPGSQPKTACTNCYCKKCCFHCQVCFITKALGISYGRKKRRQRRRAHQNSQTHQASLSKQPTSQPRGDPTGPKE

[9] = target: T6, Replicative DNA helicase DnaB (Mycobacterium tuberculosis, UniProt P9WMR3); assay: DnaB intein splicing inhibitors, dose response, biochemical, cell-free fluorescence (AID 449749); assay type: functional
T6 sequence (P9WMR3 whole entry): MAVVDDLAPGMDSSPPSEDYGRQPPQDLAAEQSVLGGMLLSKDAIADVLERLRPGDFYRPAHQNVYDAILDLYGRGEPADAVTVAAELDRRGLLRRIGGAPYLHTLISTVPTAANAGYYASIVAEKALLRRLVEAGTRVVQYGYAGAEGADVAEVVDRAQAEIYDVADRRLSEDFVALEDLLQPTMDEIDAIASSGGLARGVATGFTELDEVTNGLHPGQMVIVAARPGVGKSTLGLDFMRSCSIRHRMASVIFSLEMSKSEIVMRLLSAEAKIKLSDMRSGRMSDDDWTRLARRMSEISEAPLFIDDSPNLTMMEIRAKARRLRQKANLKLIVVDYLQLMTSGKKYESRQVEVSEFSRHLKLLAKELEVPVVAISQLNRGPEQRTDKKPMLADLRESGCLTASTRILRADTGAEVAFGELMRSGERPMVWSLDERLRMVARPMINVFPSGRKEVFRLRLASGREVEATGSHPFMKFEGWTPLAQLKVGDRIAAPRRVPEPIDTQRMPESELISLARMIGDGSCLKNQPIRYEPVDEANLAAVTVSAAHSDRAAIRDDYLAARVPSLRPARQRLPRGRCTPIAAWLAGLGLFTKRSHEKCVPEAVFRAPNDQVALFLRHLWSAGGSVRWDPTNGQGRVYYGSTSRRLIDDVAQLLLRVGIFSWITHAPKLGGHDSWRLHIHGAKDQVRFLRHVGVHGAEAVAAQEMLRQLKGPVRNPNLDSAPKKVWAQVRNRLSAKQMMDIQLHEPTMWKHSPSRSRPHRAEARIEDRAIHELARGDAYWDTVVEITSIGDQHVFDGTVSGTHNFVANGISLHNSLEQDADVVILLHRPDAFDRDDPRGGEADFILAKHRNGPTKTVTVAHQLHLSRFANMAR

[10] = target: E3 ubiquitin-protein ligase Mdm2 (Homo sapiens, UniProt Q00987); assay: enhancers of MDM2-luciferase reporter signal, concentration-effect titration, project on inhibitors of MDM2 ubiquitin ligase, cellular assay, luminescent readout, 384-well plate format (AID 1394); assay type: functional;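 also: MDM2 E3 inhibitors raise luminescence so EC50 is for signal enhancement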
Nonstructural protein 1 = Nonstructural protein 1 (Influenza A virus, UniProt Q194T2); assay type: functional, Influenza A virus (A/California/07/2009(H1N1))
HeLa = assay: HeLa cell cytotoxicity, dose response, cytotoxicity control for MITF activator project, CellTiter-Glo luminescence, cherry-pick samples (AID 540259); assay type: functional, cell-based; conditions: Homo sapiens
DNA topoisomerase = DNA topoisomerase (Yersinia pestis, UniProt A0A2S9PM60); assay: Y. pestis Topo-I inhibitors, cleavage product readout, dose response, biochemical, cherry-pick (AID 588525)
[11] = target: T7, Probable nicotinate-nucleotide adenylyltransferase (Staphylococcus aureus (strain N315), UniProt P65502); assay type: functional, Staphylococcus aureus subsp. aureus N315;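 as to IC50 Mean: confirmatory dose-response retesting of NadD inhibitor hits first found in an ultra-high-throughput screen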
[12] = target: T7, Probable nicotinate-nucleotide adenylyltransferase; assay type: functional, Staphylococcus aureus subsp. aureus N315; conditions: read-out: IC50_Mean

Cc1cc(C=C2C(=O)c3ccccc3C2=O)c(C)n1-c1ccccc1
EC50 (Troponin, cardiac muscle): > 7.94 µM (active)
AC50 [1]: 3.78 µM (active)
IC50 (Cysteine protease ATG4B): 11 µM (active)
AC50 (A-375 [2]): > 11 µM (active)
AC50 (A-375 [3]): > 11 µM (active)
IC50 (Phospholipase A2): 6.96 µM (active)

O=C1C(Cl)=C(N2CCCCC2)C(=O)C(Cl)=C1c1cnc(N2CCCCC2)s1
IC50 (Beta-galactosidase): > 66.6 µM (inactive)
IC50 (Hexokinase HKDC1): 11.4 µM (active)
IC50 (Beta-arrestin-1): 14.1 µM (active)
EC50 [4]: 4.4 µM (active)
EC50 [5]: 2.75 µM (active)
IC50 [6]: > 64 µM (inactive)
IC50 [7]: > 66.6 µM (inactive)
EC50 (HT-1080): 45.9 µM (active)
EC50 (Protein RecA): 0.766 µM (active)
EC50 [8]: 3.45 µM (active)
IC50 (Protein Tat): 1.99 µM (inconclusive)
AC50 [9]: > 380 µM (inactive)
EC50 [10]: 2.42 µM (active)
IC50 (Nonstructural protein 1): 21.4 µM (active)

Cc1ccn2c(C(=O)c3ccc(Cl)cc3)cnc2c1
AC50 (HeLa): 37 µM (active)

O=C(Nc1ccn(CCCN(CCCn2ccc(NC(=O)OCc3ccccc3)nc2=O)CCc2cc3ccccc3[nH]2)c(=O)n1)OCc1ccccc1
AC50 (DNA topoisomerase): 2.54 µM (active)
IC50 [11]: 15.9 µM (active)
IC50 [12]: 40.7 µM (active)
